The record followed here is patent US5045533A, “Retinoic esters of antibiotics and pharmaceutical and cosmetic compositions containing them” (L'Oreal, priority 1986, dated 1991).

In assay [1] the test system is P37 E⊖ (resistant). As to the kind of experiment: MIC by dilution method, P37 E⊖ (resistant) strain. It is filed as cell-based, propionibacterium acnes. The following applies: for MIC: Cutibacterium acnes; for activity on resistant strains relative to the esters of the invention: P37 E⊖. The text has this:
(§1) The activity of retinoic esters of antibiotics namely of erythromycin A, lincomycin and clindamycin has been studied by the dilution method, so as to determine, the minimal inhibitory concentration (MIC), this method being described and employed by G. A. Denys et al, "Antimicrobial Agents and Chemotherapy" 1983) 23, 335-337 and J. J. Leyden et al, J. Am. Acad. Dermatol. (1983), 8, (1) 41-5, by using as the strain of propionibacterium acnes, the P37 strain furnished by Cunliffe and Holland.
(§2) (1) at the interior of the zone of inhibition strains called P37 E⊖ are retained because of their apparent resistance to erythromycin;
(§3) After isolation and culture, the P37 E⊕ and P37 E⊖ strains effectively show very different sensitivities to erythromycin as is illustrated by the following respective MIC values:
(§4) The Minimal Inhibitory Concentration (MIC) expressed in μg/ml of the tested retinoic esters of erythromycin A, lincomycin and clindamycin vis-a-vis the P37⊕ and P37⊖ strains is reported in the following tables

Assay [2] concerns P37 E⊕ (sensitive). As to the kind of experiment: MIC by dilution method, P37 E⊕ (sensitive) strain. It is filed as cell-based, propionibacterium acnes. The note with it: for MIC: Cutibacterium acnes; for activity on sensitive strains relative to the esters of the invention: P37 E⊕.
Description: as §1
(§5) (2) at 1 cm beyond the periphery of the zone of inhibition strains called P37 E⊕ are retained.
as §3, §4

For assay [3], the system named is Staph. Epi. 3. Put plainly: MIC, Staph. Epi. 3 strain. The following applies: Staphylococcus epidermidis; strain isolated from an acne patient; read-out: minimal inhibitory concentrations, Staph. Epi. 3. Type of assay: cell-based.
Description: as §1
(§6) The "Staph. Epi. 3" strain is isolated from an acne patient whereas the "Staph. Epi. 6" strain is isolated from a non-acne patient. The isolation of these strains is carried out in accordance with the Williamson-Kligman method, ("A new method for the quantitative investigation of cutaneous bacteria", P. Williamson and A. Kligman, J. I. D., Vol. 45, No. 6, 1965). Decimal dilutions of the retained portions are effected and 0.1 ml of these dilutions is inoculated on a selective medium permitting isolation of staphylococcus.

Assay [4] relates to Staph. Epi. 6. Put plainly: MIC, Staph. Epi. 6 strain. Type of assay: cell-based. The following applies: Staphylococcus epidermidis; strain isolated from a non-acne patient; read-out: minimal inhibitory concentrations, Staph. Epi. 6.
Description: as §1, §6

The test system of assay [5] is P37 E⊕. Put plainly: IC 50 (Inhibitory Concentration at 50%), P37 E⊕. Type of assay: cell-based, propionibacterium acnes. The following applies: Cutibacterium acnes, constant culture time, 50% of survivors.
Description: as §5
(§7) This phenomeon is confirmed by the study of the IC 50 (Inhibitory Concentration at 50%) which represents the concentration of erythromycin where, at a constant culture time, 50% of survivors among the population are found.

Assay [6] has as its system P37 E⊖. Put plainly: IC 50 (Inhibitory Concentration at 50%), P37 E⊖. It is filed as cell-based, propionibacterium acnes. The note with it: Cutibacterium acnes.
Description: as §2, §7

Assay [7] relates to P37. Put plainly: IC 50 (Inhibitory Concentration at 50%), P37. Type of assay: cell-based, propionibacterium acnes. The note with it: Cutibacterium acnes, constant culture time, 50% of survivors.
Description: as §7

Assay [8] has as its system P37 strain. As to the kind of experiment: zone of inhibition of growth around disk in Petri dish. Type of assay: cell-based, propionibacterium acnes. The note with it: Cutibacterium acnes, 144 h; 50 μg erythromycin in DMSO on 9 mm disk; 6 days at 36° C., anaerobic; after 8 sub-cultures; read-out: zone of inhibition of the growth of the strain, total diameter. How it is done: On the other hand, after 8 successive sub-cultures in the same medium (RCM, Reinforced Clostridium Medium (oxoid) 19/20, DMSO […] by volume) so as to obtain a progressive stabilization of the strain to this medium, a progressive resistance to erythromycin is manifested in the following form.
After exposure of a standardized inoculum (DO=1.8 to […]) on gelose medium (RCM+ furazolidone) in a Petri dish, a 9 mm diameter disk is deposited at its center. On this disk, 50 μg of erythromycin (in solution in DMSO) are deposited.

Where [9] appears, read: read-out: Minimal Inhibitory Concentration (MIC), P37 E⊖ (resistant).
Where [10] appears, read: sensitive strain, retinoic ester table, read-out: Minimal Inhibitory Concentration (MIC), P37 E⊕ (sensitive).

≈ marks a conversion by molar mass, not a printed value. Like-named read-outs stand apart in the source and are kept apart here.

As to `CCCCCCCC/C=C\CCCCCCCC(=O)O[C@H]1[C@@H](O)[C@@H]([C@H](NC(=O)[C@@H]2C[C@@H](CCC)CN2C)[C@H](C)Cl)O[C@H](SC)[C@@H]1O` [O-oleoyl-3-clindomycin], the MIC in assay [1] (setting [9]) was above 138 µg/mL; in assay [2] (setting [10]) it was 54 µg/mL (≈ 78.3 µM). Also, the “activity on resistant strains relative to the esters of the invention” value in assay [1] was “clearly less active”. For the same compound, in assay [2], the “activity on sensitive strains relative to the esters of the invention” value is listed as “clearly less active”.

As to `CCC[C@@H]1C[C@@H](C(=O)N[C@@H]([C@H]2O[C@H](SC)[C@H](O)[C@@H](OC(=O)\C=C(C)/C=C/C=C(C)/C=C/C3=C(C)CCCC3(C)C)[C@H]2O)[C@H](C)Cl)N(C)C1` [O-retinoyl (13-cis)-3-clindamycin], the MIC in assay [3] was 113 µg/mL (≈ 160 µM); in assay [4], 113 µg/mL (≈ 160 µM); in assay [1] (setting [9]), 35 µg/mL (≈ 49.5 µM); in assay [2] (setting [10]), 1.5 µg/mL (≈ 2.12 µM).

Consider `CCCCCCCC/C=C\CCCCCCCC(=O)O[C@H]1[C@@H](O)[C@@H]([C@H](NC(=O)[C@@H]2C[C@@H](CCC)CN2C)[C@@H](C)O)O[C@H](SC)[C@@H]1O` [O-oleoyl-3-lincomycin], for which the MIC turned out to be 42 µg/mL (≈ 62.6 µM) in assay [1] (setting [9]) and 19 µg/mL (≈ 28.3 µM) in assay [2] (setting [10]).

As for `CCC[C@@H]1C[C@@H](C(=O)N[C@@H]([C@H]2O[C@H](SC)[C@H](O)[C@@H](OC(=O)\C=C(C)/C=C/C=C(C)/C=C/C3=C(C)CCCC3(C)C)[C@H]2O)[C@@H](C)O)N(C)C1` [O-retinoyl (13-cis)-3-lincomycin], the MIC in assay [3] was 100 µg/mL (≈ 145 µM); in assay [4] it was 100 µg/mL (≈ 145 µM); in assay [1] (setting [9]), 25 µg/mL (≈ 36.3 µM); in assay [2] (setting [10]) it was 17.5 µg/mL (≈ 25.4 µM).

Regarding `CC[C@H]1OC(=O)[C@H](C)[C@@H](O[C@H]2C[C@@](C)(OC)[C@@H](O)[C@H](C)O2)[C@H](C)[C@@H](O[C@@H]2O[C@H](C)C[C@H](N(C)C)[C@H]2O)[C@](C)(O)C[C@@H](C)C(=O)[C@H](C)[C@@H](O)[C@]1(C)O` [Erythromycin A], the IC50 – broadly, the concentration that gives 50% inhibition – in assay [5] is 5 µg/mL (≈ 6.81 µM); in assay [6], 100 µg/mL (≈ 136 µM); in assay [7] it was 50 µg/mL (≈ 68.1 µM). For the same compound, the MIC in assay [3] is 13 µg/mL (≈ 17.7 µM); in assay [4], 30 µg/mL (≈ 40.9 µM); in assay [1] it was 50 µg/mL (≈ 68.1 µM); in assay [1] (setting [9]), above 50 µg/mL; in assay [2] (P37 E⊕ strain, strain characterisation table, read-out: MIC), 0.78 µg/mL (≈ 1.06 µM); in assay [2] (setting [10]) it was 1 µg/mL (≈ 1.36 µM). Moreover, in assay [8], the zone of inhibition (in general, the extent of the growth-free halo in a diffusion test) at 50 µg/disc came out at 42 mm.

On to `CCCCCCCC/C=C\CCCCCCCC(=O)O[C@H]1[C@H](O[C@@H]2[C@@H](C)[C@H](O[C@H]3C[C@@](C)(OC)[C@@H](O)[C@H](C)O3)[C@@H](C)C(=O)O[C@H](CC)[C@@](C)(O)[C@H](O)[C@@H](C)C(=O)[C@H](C)C[C@@]2(C)O)O[C@H](C)C[C@@H]1N(C)C` [O-oleoyl-2'-erythromycin A (Z-9)], for which the MIC amounted to 100 µg/mL (≈ 100 µM) in assay [1] (setting [9]) and 50 µg/mL (≈ 50.1 µM) in assay [2] (setting [10]). In addition, in assay [1], the “activity on resistant strains relative to the esters of the invention” value is listed as “clearly less active”. Moreover, the “activity on sensitive strains relative to the esters of the invention” value in assay [2] was “clearly less active”.

As for `CC[C@H]1OC(=O)[C@H](C)[C@@H](O[C@H]2C[C@@](C)(OC)[C@@H](O)[C@H](C)O2)[C@H](C)[C@@H](O[C@@H]2O[C@H](C)C[C@H](N(C)C)[C@H]2OC(=O)\C=C(C)/C=C/C=C(C)/C=C/C2=C(C)CCCC2(C)C)[C@](C)(O)C[C@@H](C)C(=O)[C@H](C)[C@@H](O)[C@]1(C)O` [O-retinoyl (13-cis)-2'-erythromycin A], the MIC in assay [3] came to 110 µg/mL (≈ 108 µM); in assay [4] it was 110 µg/mL (≈ 108 µM); in assay [1] (setting [9]), 34 µg/mL (≈ 33.5 µM); in assay [2] (setting [10]), 20 µg/mL (≈ 19.7 µM).

`CCC[C@@H]1C[C@@H](C(=O)N[C@@H]([C@H]2O[C@H](SC)[C@H](O)[C@@H](O)[C@H]2O)[C@H](C)Cl)N(C)C1` [Clindamycin]: the MIC in assay [3] is 7 µg/mL (≈ 16.5 µM); in assay [4], 8 µg/mL (≈ 18.8 µM); in assay [1] (setting [9]), 10 µg/mL (≈ 23.5 µM); in assay [2] (setting [10]), 1 µg/mL (≈ 2.35 µM).

Regarding `CC[C@H]1OC(=O)[C@H](C)[C@@H](O[C@H]2C[C@@](C)(OC)[C@@H](O)[C@H](C)O2)[C@H](C)[C@@H](O[C@@H]2O[C@H](C)C[C@H](N(C)C)[C@H]2OC(=O)/C=C(C)/C=C/C=C(C)/C=C/C2=C(C)CCCC2(C)C)[C@](C)(O)C[C@@H](C)C(=O)[C@H](C)[C@@H](O)[C@]1(C)O` [O-retinoyl (all trans)-2'-erythromycin A], the MIC was 75 µg/mL (≈ 73.8 µM) in assay [3], 80 µg/mL (≈ 78.7 µM) in assay [4], 13 µg/mL (≈ 12.8 µM) in assay [1] (setting [9]) and 14 µg/mL (≈ 13.8 µM) in assay [2] (setting [10]).

Regarding `CCC[C@@H]1C[C@@H](C(=O)N[C@@H]([C@H]2O[C@H](SC)[C@H](O)[C@@H](O)[C@H]2O)[C@@H](C)O)N(C)C1` [Lincomycin], the MIC in assay [3] was determined as 14 µg/mL (≈ 34.4 µM); in assay [4], 20 µg/mL (≈ 49.2 µM); in assay [1] (setting [9]), 66 µg/mL (≈ 162 µM); in assay [2] (setting [10]) it was 13 µg/mL (≈ 32 µM).

Regarding `CCC[C@@H]1C[C@@H](C(=O)N[C@@H]([C@H]2O[C@H](SC)[C@H](O)[C@@H](OC(=O)/C=C(C)/C=C/C=C(C)/C=C/C3=C(C)CCCC3(C)C)[C@H]2O)[C@H](C)Cl)N(C)C1` [O-retinoyl (all-trans)-3-clindamycin, O-retinoyl (all trans)-3-clindamycin], the values for the MIC in assay [1] (setting [9]) and in assay [2] (setting [10]) were 50 µg/mL (≈ 70.7 µM) and 18 µg/mL (≈ 25.4 µM), respectively.
